Earlier results in patent publication US11690524B2, “Assessment of iron deposition post myocardial infarction as a marker of myocardial hemorrhage” (Cedars-Sinai Medical Center, priority 2011, dated 2023).

Legend:
[1] = qualitative statement
[2] = test system: post MI patients; conditions: 6 months of therapy, TACT trial

| Structure (SMILES) | half-life in plasma / plasma life [1] | effect on MACE (major adverse cardiovascular events) [2] |
| --- | --- | --- |
| CC(=O)N(O)CCCCCNC(=O)CCC(=O)N(O)CCCCCNC(=O)CCC(=O)N(O)CCCCCN [deferoxamine] | short | – |
| O=C(O)CN(CCN(CC(=O)O)CC(=O)O)CC(=O)O [EDTA] | – | did not decrease MACE |
| Cc1c(O)c(=O)ccn1C [Deferiprone] | longer | – |
